Data from patent publication US20260355169A1, “METHODS OF TREATING CANCERS USING ISOQUINOLINE OR 6-AZA-QUINOLINE DERIVATIVES” (Black Diamond Therapeutics, Inc., priority 2022, published 2026).

Tested on: BaF3 BRAF-KIAA1549 fusion cells
Experiment: BaF3 BRAF-KIAA1549 fusion cell proliferation assay
Format: cell-based
Conditions: Mus musculus, BaF3, 96 h, read-out: IC50, inhibition of cell growth, BaF3-BRAF:KIAA1549 Fusion
Experimental: Retroviral Production: The BRAF-KIAA1549 fusion mutant was subcloned into pMXs-IRES-Blasticidin (RTV-016, Cell Biolabs, San Diego, CA). […]. Briefly, HEK 293T cells were plated in Poly-D-lysine coated 6-well plate (2.5×10^5 cells per well) and incubated overnight. The next day, retroviral plasmids (1 μg of BRAF-KIAA fusion mutant, 0.32 μg of pCMV-Gag-Pol and 0.165 μg pCMV-VSV-G) were mixed in 300 μL of Optimem (31985, Life Technologies). The mixture was incubated at room temperature for 5 minutes and then added to Optimem containing transfection reagent Lipofectamine (11668, Invitrogen) and incubated for 20 minutes. The mixture was then added dropwise to HEK 293T cells. The next day the medium was replaced with fresh culture medium and retrovirus was harvested at 24 hours.
Generation of BRAF-KIAA1549 fusion stable cell line: BaF3 cells were plated in V-bottom 96 well plate (COSTAR #3894) in 80 μL of RPMI/10% FBS and 0.01 ng/mL mouse IL-3, supplemented with 8 μg/mL polybrene (4×10^4 cells/well). Cells were transduced with 20 μL of BRAF-KIAA1549 fusion viral supernatant by centrifuging for 30 minutes at 1000 rpm. Cells were placed in a 37 °C incubator overnight. Next day 100 μL of RPMI/10% FBS and 0.01 ng/mL mouse IL-3 was added. After 24 hours, 100 μL of cells were transferred to a 24 well plate containing 900 μL of RPMI/10% FBS and 15 μg/mL Blasticidin. Contents of the 24 well plate were sampled for cell viability via CellTiterGlo (Promega) over a 2-week period.
Assay for cell proliferation: BaF3 BRAF-KIAA1549 fusion cells were resuspended at 1.5×10^5 c/mL in RPMI containing 10% Heat Inactivated FBS, 1% L-glutamine and dispensed in duplicate ([…]) into 384 well plates. To determine the effect of compound on cell proliferation, BaF3 BRAF-KIAA1549 fusion cells were incubated for 96 hours in the presence of vehicle control (DMSO) or compound at varying concentrations. Inhibition of cell growth was determined by luminescent quantification (Envision by Perkin Elmer) of intracellular ATP content using CellTiterGlo (Promega), according to the protocol provided by the manufacturer. To determine the IC50 values, the vehicle-treated cells were normalized as viable cells and analyzed using the CDD Vault, Collaborative Drug Discovery, Burlingame, CA (the Levenberg-Marquardt algorithm; Levenberg, K, […]; Marquardt, D., 1963).
Table A assigns each compound a code for potency in the BaF3 BRAF-KIAA1549 fusion cell proliferation assay: A, B, C, or D. According to the code, A represents an IC50 value<20 nM; B represents an IC50 value≥20 nM and <100 nM; C represents an IC50 value≥100 nM and <500 nM; and D represents an IC50 value≥500 nM.

Row | Structure (SMILES) | IC50
1 | CNc1cc2ncc(-c3cc(NC(=O)c4cc(C(C)(C)F)ccn4)cnc3C)cc2cn1 [compound 65] | 20 to 100 nM
2 | CNc1cc2ncc(-c3cc(NC(=O)c4cc(C(F)F)c(F)cn4)cnc3C)cc2cn1 [compound 66] | 20 to 100 nM
3 | CNc1cc2ncc(-c3cc(NC(=O)[C@H](C)n4cnc(C(F)(F)F)n4)ccc3C)cc2cn1 [compound 68] | 20 to 100 nM
4 | CNc1cc2ncc(-c3cc(NC(=O)[C@@H](C)n4cnc(C(F)(F)F)n4)ccc3C)cc2cn1 [compound 69] | 100 to 500 nM
5 | CNc1cc2ncc(-c3cc(NC(=O)c4cc(C(F)(F)F)c(OCCO)cn4)ccc3C)cc2cn1 [compound 71] | 20 to 100 nM
6 | CNc1cc2ncc(-c3cc(NC(=O)c4ccc(OC(F)F)cn4)cnc3C)cc2cn1 [compound 72] | > 500 nM
7 | CNc1cc2ncc(-c3cc(NC(=O)c4cc(C(F)(F)F)ccn4)nnc3C)cc2cn1 [compound 75] | 20 to 100 nM
8 | CNc1cc2ncc(-c3cc(NC(=O)c4cc(C(C)(C)C#N)ccn4)nnc3C)cc2cn1 [compound 77] | 20 to 100 nM
9 | Cc1ccc(NC(=O)c2cc(C(F)F)ccn2)cc1-c1cnc2cc(NCCC#N)ncc2c1 [compound 78] | 20 to 100 nM
10 | CNc1cc2nc(C#N)c(-c3cc(NC(=O)c4ccnc(C(F)(F)F)c4)ccc3C)cc2cn1 [compound 79] | < 20 nM
11 | CCNc1cc2ncc(-c3cc(NC(=O)c4ccnc(C5(F)CC5)c4)ccc3C)cc2cn1 [compound 153] | 20 to 100 nM
12 | Cc1ccc(NC(=O)c2ccnc(C3(F)CC3)c2)cc1-c1cnc2cc(N)ncc2c1 [compound 154] | < 20 nM
13 | CCNc1cc2ncc(-c3cc(NC(=O)c4cc(C(C)(C)C#N)ccn4)ccc3C)cc2cn1 [compound 173] | 20 to 100 nM
14 | Cc1ccc(NC(=O)c2cc(C(C)(C)C#N)ccn2)cc1-c1cnc2cc(N)ncc2c1 [compound 174] | 20 to 100 nM
15 | CCNc1cc2ncc(-c3cc(NC(=O)c4cc(C(C)(C)C#N)ccn4)cnc3C)cc2cn1 [compound 175] | 20 to 100 nM
16 | Cc1ncc(NC(=O)c2cc(C(C)(C)C#N)ccn2)cc1-c1cnc2cc(N)ncc2c1 [compound 176] | 20 to 100 nM
17 | CNc1cc2ncc(-c3cc(NC(=O)N(C)c4cc(C(F)F)ccn4)ccc3C)cc2cn1 [compound 189] | 100 to 500 nM
18 | CNc1cc2ncc(-c3cc(NC(=O)N(C)c4ccnc(C(F)F)c4)cnc3C)cc2cn1 [compound 190] | 100 to 500 nM
19 | CNc1cc2ncc(-c3cc(NC(=O)c4cccc(C5(C#N)CC5)c4)cnc3C)cc2cn1 [compound 191] | 20 to 100 nM

Row | Structure (SMILES) | IC50
20 | CNc1ncc2cc(-c3cc(NC(=O)c4ccnc(C(C)(C)C#N)c4)cnc3C)cnc2c1C#N [compound 192] | 100 to 500 nM
21 | CNc1cc2ncc(-c3cc(NC(=O)c4cccc(C(C)(C)C#N)c4)ccc3C)cc2cn1 [compound 193] | < 20 nM
22 | CNc1cc2ncc(-c3cc(NC(=O)c4c[nH]c5ccccc45)cnc3C)cc2cn1 [compound 194] | 20 to 100 nM
23 | CNc1cc2ncc(-c3cc(NC(=O)c4cnc5n4CCC(C)C5)ccc3C)cc2cn1 (stereo not drawn) [compound 195] | > 500 nM
24 | CNc1cc2ncc(-c3cc(C(=O)Nc4cccc(C(C)(C)C#N)c4)cnn3)cc2cn1 [compound 196] | > 500 nM
25 | CNc1cc2ncc(-c3c(C)ncc(NC(=O)c4cc(C(C)(C)C#N)ccn4)c3Cl)cc2cn1 [compound 197] | > 500 nM
26 | CNc1cc2ncc(-c3cc(NC(=O)c4cccc5c4CCCC5=O)cnc3C)cc2cn1 [compound 198] | > 500 nM
27 | CNc1cc2ncc(-c3cc(NC(=O)c4cccc(C(C)(F)F)c4)cnc3C)cc2cn1 [compound 200] | < 20 nM
28 | CNc1cc2ncc(-c3cc(NC(=O)c4cc(C(O)C5CC5)ccn4)cnc3C)cc2cn1 (stereo not drawn) [compound 201] | 20 to 100 nM
29 | CNc1cc2ncc(-c3cc(NC(=O)c4cc(C(O)C(C)C)ccn4)cnc3C)cc2cn1 (stereo not drawn) [compound 202] | 20 to 100 nM
30 | CNc1cc2ncc(-c3cc(NC(=O)c4cc(C(NC)C(F)(F)F)ccn4)ccc3C)cc2cn1 (stereo not drawn) [compound 203] | < 20 nM
31 | CNc1cc2ncc(-c3cc(NC(=O)c4cnc5n4CC(C)CC5)ccc3C)cc2cn1 (stereo not drawn) [compound 204] | < 20 nM
32 | CNc1cc2ncc(-c3cc(NC(=O)c4cnc5n4C(C)CCC5)ccc3C)cc2cn1 (stereo not drawn) [compound 205] | 100 to 500 nM
33 | CNc1cc2ncc(-c3cc(NC(=O)c4cc(C(O)(O)C(F)(F)F)ccn4)cnc3C)cc2cn1 [compound 206] | 20 to 100 nM
34 | CNc1cc2ncc(-c3cc(NC(=O)c4cccc5c4CCC[C@H]5O)cnc3C)cc2cn1 [compound 207] | > 500 nM
35 | CNc1cc2ncc(-c3cc(NC(=O)c4cnc5n4CCCC5)cnc3C)cc2cn1 [compound 209] | > 500 nM
36 | CNc1cc2ncc(-c3cc(NC(=O)c4cccc(C(O)C(F)(F)F)n4)cnc3C)cc2cn1 (stereo not drawn) [compound 210] | > 500 nM
37 | CNc1cc2ncc(-c3cc(NC(=O)c4nccc5c4OCCC5O)cnc3C)cc2cn1 (stereo not drawn) [compound 211] | > 500 nM
38 | CNc1cc2ncc(-c3cc(NC(=O)c4cccc5c4CCC5=O)cnc3C)cc2cn1 [compound 212] | > 500 nM

Row | Structure (SMILES) | IC50
39 | CNc1cc2ncc(-c3cc(C(=O)Nc4cc(C(C)(C)C#N)ccn4)cnn3)cc2cn1 [compound 213] | > 500 nM
40 | CNc1cc2ncc(-c3cc(NC(=O)c4cnc5n4CCCC5C)ccc3C)cc2cn1 (stereo not drawn) [compound 214] | 20 to 100 nM
41 | CNc1cc2ncc(-c3cc(NC(=O)c4cccc5c4NC(=O)C5(C)C)ccc3C)cc2cn1 [compound 215] | 20 to 100 nM
42 | CNc1cc2ncc(-c3cc(NC(=O)c4cnc5n4CCCC5)ccc3C)cc2cn1 [compound 216] | 100 to 500 nM
43 | CNc1cc2ncc(-c3cc(NC(=O)c4ccnc(C(C)(C)C#N)c4)c(F)cc3C)cc2cn1 [compound 217] | 20 to 100 nM
44 | CNc1cc2ncc(-c3cc(NC(=O)c4cc(C(N(C)C)C(F)(F)F)ccn4)ccc3C)cc2cn1 (stereo not drawn) [compound 218] | 20 to 100 nM
45 | CNc1cc2ncc(-c3cc(NC(=O)c4cccc5c4CCC5O)cnc3C)cc2cn1 (stereo not drawn) [compound 219] | > 500 nM
46 | CNc1cc2ncc(-c3cc(NC(=O)c4cnc5n4CC(C(F)(F)F)CC5)ccc3C)cc2cn1 (stereo not drawn) [compound 220] | 20 to 100 nM
47 | CNc1cc2ncc(-c3cc(NC(=O)c4ccnc(C5(F)CC5)c4)c(F)cc3C)cc2cn1 [compound 221] | 20 to 100 nM
48 | CNc1cc2ncc(-c3cc(NC(=O)c4ccnc(C(C)(C)F)c4)c(F)cc3C)cc2cn1 [compound 222] | 20 to 100 nM
49 | CNc1cc2ncc(-c3cc(NC(=O)c4cccc(C(C)(C)C#N)c4)c(F)cc3C)cc2cn1 [compound 223] | 20 to 100 nM
50 | CNc1cc2ncc(-c3cc(NC(=O)c4cc(C(F)(F)F)ccn4)c(F)cc3C)cc2cn1 [compound 224] | 100 to 500 nM
51 | CNc1cc2ncc(-c3cc(NC(=O)c4cnc5n4CC(C)CC5)cnc3C)cc2cn1 (stereo not drawn) [compound 225] | 20 to 100 nM
52 | CNc1cc2ncc(-c3cc(NC(=O)c4ccccc4NC(C)C(F)F)cnc3C)cc2cn1 (stereo not drawn) [compound 226] | 20 to 100 nM
53 | CCC(C)c1ccnc(C(=O)Nc2cnc(C)c(-c3cnc4cc(NC)ncc4c3)c2)c1 (stereo not drawn) [compound 227] | 20 to 100 nM
54 | CNc1cc2ncc(-c3cc(NC(=O)c4noc5c4CCCC5)ccc3C)cc2cn1 [compound 228] | 100 to 500 nM
55 | CNc1cc2ncc(-c3cc(NC(=O)c4n[nH]c5c4CCCC5)cnc3C)cc2cn1 [compound 229] | 20 to 100 nM
56 | CNc1cc2ncc(-c3cc(NC(=O)c4cnc5n4C[C@H](C)CC5)ccc3C)cc2cn1 [compound 230] | 20 to 100 nM
57 | CNc1cc2ncc(-c3cc(NC(=O)c4cnc5n4C[C@@H](C)CC5)ccc3C)cc2cn1 [compound 231] | 20 to 100 nM
